# According to patent US20180153993A1, “COMPOSITIONS AND METHODS FOR TREATMENT AND PREVENTION OF CARDIOVASCULAR DISEASES” (The Chinese University of Hong Kong, priority 2016, published 2018):
# Key:
# [1] = test system: YAP/TAZ; experiment: YAP/TAZ reporter (8xGTIIC-luc) gene activity in HUVECs; type: cell-based, human
# [2] = test system: RhoA; experiment: GST-RBD pull-down for active RhoA (GTP-RhoA) detection; type: cell-based, human; details: MnCl2 treatment
# Procedure: GST-RBD recombinant protein was purified from BL21 (DE3) Escherichia coli and affinity conjugated to glutathione sepharose beads (Pharmacia). For GST affinity pull-down, 10^7 cells were lysed in 1 ml Weak Lysis Buffer (Beyotime) supplemented with protease inhibitors (Roche). Cell lysates were centrifuged at 15,000 g at 4° C. for 20 min to remove cell debris. Cell lysates were incubated in sepharose beads conjugated with 1 μg GST-RBD and incubate at 4° C. for 2 h with constant agitation, and precipitated by centrifugation at 1,000 r.p.m. for 10 min. After three washes, beads were collected by centrifugation and boiled in 2× SDS loading buffer for 5 min. The active RhoA was determined by western blotting.
# [3] = test system: YAP; experiment: YAP phosphorylation (Ser127, pYAP) by immunoblotting in HUVECs; type: cell-based, human
# Procedure: Cells or tissues were homogenized in cold RIPA lysis buffer supplemented with complete protease inhibitors cocktail and phosSTOP phosphatase inhibitor (Roche). The protein concentration was determined using Bradford Assay (Bio-Rad). Ten micrograms of protein were resolved by SDS-polyacrylamide gel electrophoresis and transferred to the PVDF membrane (Bio-Rad). Target protein was detected using specific primary antibody. Bound antibodies were detected by horseradish-peroxidase-conjugated secondary antibody and visualized by enhanced chemiluminescence (Cell Signaling Technology). Experiments were repeated three times and the target protein level was quantified by imageJ and normalized to internal control (or pYAP was normalized by total YAP) (FIGS. 10 and 11).
# (§1) HUVECs and human aortic ECs were purchased from Lonza (EGM, Clonetics, Lonza, Walkersville, Md., USA). Lonza guarantees that the cells express CD31/105, von Williebrand Factor VIII, and are positive for acetyated low density lipoprotein uptake. Mycoplasma contamination was not tested during the experiments. HUVECs maintained in EGM supplemented with EGS and FBS at 37° C. in an incubator with 95% humidified air and 5% CO2 and passed every 3 days. Cells within seven passages were used in in vitro study.
# [4] = test system: YAP/TAZ; experiment: YAP/TAZ nuclear exportation in HUVECs; type: cell-based, human
# [5] = test system: ApoE−/− mice; experiment: Oral administration of MnCl2 in ApoE-/- mice on Western diet, Oil Red O staining of atherosclerotic plaques; type: in vivo, mouse; details: Western diet 12 weeks, MnCl2 oral in drinking water 5 mg/kg body weight
# Procedure: ApoE^−/− mice (male, 12 weeks old) were fed a Western diet, and MnCl2 was administered through voluntary water consumption. Water consumption rate was predetermined by monitoring the volume of water remained. MnCl2 was supplemented to drinking water to achieve 5 mg/kg body weight. Mice body weight and water consumption were adjusted weekly to adapt to the change of body weight and water consumption. After feeding on the Western diet for 3 months, the mice were killed and the atherosclerotic plaque formation was determined by Oil Red O staining.
# The ApoE^−/− mice were killed by CO2 asphyxiation. Mouse aortas were dissected in cold PBS and cut open to expose the atherosclerotic plaques. After fixation in 4% formaldehyde for 16 h at 4° C., the tissues were first rinsed in water for 10 min and then in 60% isopropanol. The aortas were stained with Oil Red O for 15 min with gentle shaking, and rinsed again in 60% isopropanol and then in water for three rinses. The samples were fixed on the cover slides with the endothelial surface facing upwards. The images were recorded using an HP Scanjet G4050. The plaque areas were determined using National Institutes of Health ImageJ software and calculated by expressing the plaque area relative to the total vascular area.
# [6] = test system: YAP/TAZ; experiment: YAP/TAZ reporter gene activity assay of anti-atherosclerotic agents (YAP/TAZ inhibition test); type: cell-based, human; details: working concentrations of Table 1: apelin 100 nM, ApoA1 10 μg/mL, niacin 3 to 5 mM, statins 1-10 μM
# Text: Adenovirus-mediated reporter system and immortalized human aortic endothelial cells (HAECs) are used for drug screening. […] Endothelial cells express specific receptors that determine their unique response to different drug treatment. Therefore, it is necessary to use endothelial cells to study the YAP/TAZ inhibitory effect of lead drugs. Since primary endothelial cells from different donors contain distinct genetic background, which might cause significant variation between different batches of experiments, the immortalized human aortic endothelial cells are used. However, endothelial cells are difficult to be transformed, which could delay research progress and increase cost. To overcome this problem, the inventors have generated adenoviral expressing YAP/TAZ luciferase reporter and renilla internal control. The entire screening process can be completed in two days.
# [7] = test system: YAP/TAZ; experiment: YAP/TAZ target gene expression (CTGF, CYR61), quantitative real-time PCR in HUVECs; type: cell-based, human; details: CTGF and CYR61
# Procedure: RNA was extracted by using TRIzol Reagent (Thermo) according to the manufacturer's protocol. cDNA was synthesized using a High-Capacity cDNA Reverse Transcription Kit (Thermo). Quantitative PCR was performed using SYBR Select (Thermo) following the manufacturer's protocol. GAPDH was used as the internal control. Primers used for quantitative real-time PCR were included in Table 2.
# as §1
molecule,measurement,setting,value
[Cl][Mn][Cl] [MnCl2],YAP/TAZ reporter gene activity,[1],reduced YAP/TAZ reporter gene activity
same,GTP-RhoA (active RhoA),[2],GTP-RhoA suppression
same,YAP phosphorylation (pYAP),[3]; MnCl2 0.5 mM,increased pYAP
same,YAP/TAZ nuclear exportation,[4],induced YAP/TAZ nuclear exportation
same,atherosclerotic plaque formation,[5],reduced plaque formation
"O=C(O)c1cccnc1 [niacin, Nicotinic acid]",YAP/TAZ activity (reporter gene),[6],suppressed YAP/TAZ activity
Apelin,YAP/TAZ activity (reporter gene),[6],suppressed YAP/TAZ activity
ApoA1,YAP/TAZ activity (reporter gene),[6],suppressed YAP/TAZ activity
GRGDSP,YAP/TAZ target gene expression,[7],suppressed YAP/TAZ target gene expression
same,YAP phosphorylation (pYAP),[3]; GRGDSP 100 μg ml−1,increased pYAP
